Read-outs that look alike come from different tables or passages of the source.
What was measured:
[1] = tested on: 60 cancer cell lines (NCI 60 cancer cell line series); conditions: cited from earlier work
[2] = tested on: 60 cancer cell lines (NCI 60 cancer cell line series); test: NCI-DTP in vitro cancer screen, sulforhodamine B (SRB) growth inhibition, 48 hour exposure; assay type: cell-based, human; design: key to sensitivity class Ovarian OVCAR-8 CL6005 / sensitivity class Ovarian SK-OV-3 CL6011 / sensitivity class Prostate DU-145 CL11003 / sensitivity class NSCLC NCI-H522 CL1003 / sensitivity class Ovarian IGROV1 CL6010 / sensitivity class Ovarian OVCAR-4 CL6002 / sensitivity class Prostate PC-3(I) CL11001 / sensitivity class Renal A498 CL9013 / sensitivity class Renal SN12C CL9008: sensitivity class: 1 = Low, 2 = Medium, 3 = High
Procedure, shortened: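 Values come from the NCI-DTP screen database: -log GI50, the concentration giving 50% growth inhibition, derived from SRB cell-mass dose-response curves. Each line seeded at its own density, treated day 1 at five ten-fold-spaced doses in duplicate wells, stained after 48 h.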

For O=C1c2c(O)ccc(O)c2C(=O)c2c(NCCNCCO)ccc(NCCNCCO)c21 [Mitoxantrone], the “-Log (GI50)” value ([1]; Breast BT-549 (CL5013)) is listed as 7.2, the “-Log (GI50)” value ([1]; Breast HS-578T CL5006) is listed as 7.0 and the “-Log (GI50)” value ([1]; Breast MCF7(I) (CL5001)) is listed as 8.4. For the same compound, the “-Log (GI50)” value ([1]; Breast MCF7/ADRr (CL5002)) was 5.4, the “-Log (GI50)” value ([1]; Breast MDA-MB-231 CL5005) was 6.7 and the “-Log (GI50)” value ([1]; Breast MDA-MB-435 (CL5011)) was 6.3. For the same compound, the “-Log (GI50)” value ([1]; Breast MDA-N CL5012) was 6.6, the “-Log (GI50)” value ([1]; Breast T-47D (CL5014)) was 7.2 and the “-Log (GI50)” value ([1]; CNS SF-268 CL12014) was 7.5. For the same compound, the “-Log (GI50)” value ([1]; CNS SF-295 CL12015) was 7.7, the “-Log (GI50)” value ([1]; CNS SF-539 CL12016) was 7.8 and the “-Log (GI50)” value ([1]; CNS SNB-19 (CL12002)) was 7.8. The “-Log (GI50)” value ([1]; CNS SNB-75(I) CL12005) was 7.9, the “-Log (GI50)” value ([1]; CNS U251(I) CL12009) was 8.0 and the “-Log (GI50)” value ([1]; Colon COLO-250 CL4010) was 7.0. The “-Log (GI50)” value ([1]; Colon HCC-2998 (CL4002)) was 6.6, the “-Log (GI50)” value ([1]; Colon HCT-15 CL4015) was 6.6 and the “-Log (GI50)” value ([1]; Colon HCT-116 (CL4003)) was 7.3. For the same compound, the “-Log (GI50)” value ([1]; Colon HT29(I) CL4001) was 6.6, the “-Log (GI50)” value ([1]; Colon KM12 (CL4017)) was 6.3 and the “-Log (GI50)” value ([1]; Colon SW-620 (CL4009)) was 7.3. The “-Log (GI50)” value ([1]; Leukemia CCRF-CEM(I) (CL7003)) was 8.2, the “-Log (GI50)” value ([1]; Leukemia HL-60(I) (CL7008)) was 8.0 and the “-Log (GI50)” value ([1]; Leukemia K562(I) CL7005) was 6.9. The “-Log (GI50)” value ([1]; Leukemia MOLT-4 (CL7006)) was 8.3, the “-Log (GI50)” value ([1]; Leukemia RPMI-8226(I) (CL7010)) was 6.7 and the “-Log (GI50)” value ([1]; Leukemia SR CL7019) was 8.1. For the same compound, the “-Log (GI50)” value ([1]; Melanoma LOX IMVI CL10001) was 7.7, the “-Log (GI50)” value ([1]; Melanoma M14 (CL10014)) was 6.9 and the “-Log (GI50)” value ([1]; Melanoma MALME-3M CL10002) was 6.9. For the same compound, the “-Log (GI50)” value ([1]; Melanoma SK-MEL-2 (CL10005)) was 6.4, the “-Log (GI50)” value ([1]; Melanoma SK-MEL-5 (CL10007)) was 7.3 and the “-Log (GI50)” value ([1]; Melanoma SK-MEL-28 (CL10008)) was 6.3. The “-Log (GI50)” value ([1]; Melanoma UACC-62 (CL10020)) was 7.4, the “-Log (GI50)” value ([1]; Melanoma UACC-257 (CL10021)) was 5.7 and the “-Log (GI50)” value ([1]; NCSLC NCI-H522 CL1003) was 7.3. The “-Log (GI50)” value ([1]; NSCLC A549/ATCC (CL1004)) was 7.9, the “-Log (GI50)” value ([1]; NSCLC EKVX (CL1008)) was 6.5 and the “-Log (GI50)” value ([1]; NSCLC HOP-62 (CL1026)) was 7.9. For the same compound, the “-Log (GI50)” value ([1]; NSCLC HOP-92 (CL1029)) was 7.8, the “-Log (GI50)” value ([1]; NSCLC NCI-H23(I) CL1001) was 7.2 and the “-Log (GI50)” value ([1]; NSCLC NCI-H226 CL1013) was 7.8. For the same compound, the “-Log (GI50)” value ([1]; NSCLC NCI-H332M CL1017) was 6.6, the “-Log (GI50)” value ([1]; NSCLC NCI-H460 CL1021) was 8.2 and the “-Log (GI50)” value ([1]; Ovarian IGROV1 CL6010) was 6.7. The “-Log (GI50)” value ([1]; Ovarian OVCAR-3 CL6001) was 6.5, the “-Log (GI50)” value ([1]; Ovarian OVCAR-4 CL6002) was 6.5 and the “-Log (GI50)” value ([1]; Ovarian OVCAR-5 CL6003) was 6.5. For the same compound, the “-Log (GI50)” value ([1]; Ovarian OVCAR-8 CL6005) was 7.4, the “-Log (GI50)” value ([1]; Ovarian SK-OV-3 CL6011) was 7.4 and the “-Log (GI50)” value ([1]; Prostate DU-145 CL11003) was 7.5. For the same compound, the “-Log (GI50)” value ([1]; Prostate PC-3(I) CL11001) was 6.9, the “-Log (GI50)” value ([1]; Renal 786-O CL9018) was 7.7 and the “-Log (GI50)” value ([1]; Renal A498 CL9013) was 7.2. The “-Log (GI50)” value ([1]; Renal ACHN CL9023) was 7.9, the “-Log (GI50)” value ([1]; Renal CAKI-1 CL9015) was 8.0 and the “-Log (GI50)” value ([1]; Renal RXF-393 CL9016) was 7.2. For the same compound, the “-Log (GI50)” value ([1]; Renal SN12C CL9008) was 8.1, the “-Log (GI50)” value ([1]; Renal TK10 CL9024) was 6.4 and the “-Log (GI50)” value ([1]; Renal UO-31 CL9004) was 6.5. For the same compound, the “classification of cell line as Low(1), Medium(2) or High(3) sensitivity to compound” value (shortened to “classification of cell line”) ([2]; Breast BT-549 (CL5013)) was 2, the “classification of cell line” value ([2]; Breast HS-578T CL5006) was 2 and the “classification of cell line” value ([2]; Breast MCF7(I) (CL5001)) was 3. For the same compound, the “classification of cell line” value ([2]; Breast MCF7/ADRr (CL5002)) was 1, the “classification of cell line” value ([2]; Breast MDA-MB-231 CL5005) was 1 and the “classification of cell line” value ([2]; Breast MDA-MB-435 (CL5011)) was 1. The “classification of cell line” value ([2]; Breast MDA-N CL5012) was 1, the “classification of cell line” value ([2]; Breast T-47D (CL5014)) was 2 and the “classification of cell line” value ([2]; CNS SF-268 CL12014) was 2. For the same compound, the “classification of cell line” value ([2]; CNS SF-295 CL12015) was 2, the “classification of cell line” value ([2]; CNS SF-539 CL12016) was 3 and the “classification of cell line” value ([2]; CNS SNB-19 (CL12002)) was 3. For the same compound, the “classification of cell line” value ([2]; CNS SNB-75(I) CL12005) was 3, the “classification of cell line” value ([2]; CNS U251(I) CL12009) was 3 and the “classification of cell line” value ([2]; Colon COLO-250 CL4010) was 2. The “classification of cell line” value ([2]; Colon HCC-2998 (CL4002)) was 1, the “classification of cell line” value ([2]; Colon HCT-15 CL4015) was 1 and the “classification of cell line” value ([2]; Colon HCT-116 (CL4003)) was 2. The “classification of cell line” value ([2]; Colon HT29(I) CL4001) was 1, the “classification of cell line” value ([2]; Colon KM12 (CL4017)) was 1 and the “classification of cell line” value ([2]; Colon SW-620 (CL4009)) was 2. For the same compound, the “classification of cell line” value ([2]; Leukemia CCRF-CEM(I) (CL7003)) was 3, the “classification of cell line” value ([2]; Leukemia HL-60(I) (CL7008)) was 3 and the “classification of cell line” value ([2]; Leukemia K562(I) CL7005) was 2. For the same compound, the “classification of cell line” value ([2]; Leukemia MOLT-4 (CL7006)) was 3, the “classification of cell line” value ([2]; Leukemia RPMI-8226(I) (CL7010)) was 2 and the “classification of cell line” value ([2]; Leukemia SR CL7019) was 3. For the same compound, the “classification of cell line” value ([2]; Melanoma LOX IMVI CL10001) was 2, the “classification of cell line” value ([2]; Melanoma M14 (CL10014)) was 2 and the “classification of cell line” value ([2]; Melanoma MALME-3M CL10002) was 2. The “classification of cell line” value ([2]; Melanoma SK-MEL-2 (CL10005)) was 1, the “classification of cell line” value ([2]; Melanoma SK-MEL-5 (CL10007)) was 2 and the “classification of cell line” value ([2]; Melanoma SK-MEL-28 (CL10008)) was 1. For the same compound, the “classification of cell line” value ([2]; Melanoma UACC-62 (CL10020)) was 2, the “classification of cell line” value ([2]; Melanoma UACC-257 (CL10021)) was 1 and the “classification of cell line” value ([2]; NSCLC A549/ATCC (CL1004)) was 3. The “classification of cell line” value ([2]; NSCLC EKVX (CL1008)) was 1, the “classification of cell line” value ([2]; NSCLC HOP-62 (CL1026)) was 3 and the “classification of cell line” value ([2]; NSCLC HOP-92 (CL1029)) was 3. The “classification of cell line” value ([2]; NSCLC NCI-H226 CL1013) was 3, the “sensitivity class NSCLC NCI-H23(I) CL1001” value ([2]; cell line NSCLC NCI-H23(I), CL1001) was 2 and the “sensitivity class NSCLC NCI-H332M CL1017” value ([2]; cell line NSCLC NCI-H332M, CL1017) was 1. For the same compound, the “sensitivity class NSCLC NCI-H460 CL1021” value ([2]; cell line NSCLC NCI-H460, CL1021) was 3, the “sensitivity class NSCLC NCI-H522 CL1003” value ([2]; cell line NSCLC NCI-H522, CL1003) was 2 and the “sensitivity class Ovarian IGROV1 CL6010” value ([2]; cell line Ovarian IGROV1, CL6010) was 2. For the same compound, the “sensitivity class Ovarian OVCAR-3 CL6001” value ([2]; cell line Ovarian OVCAR-3, CL6001) was 1, the “sensitivity class Ovarian OVCAR-4 CL6002” value ([2]; cell line Ovarian OVCAR-4, CL6002) was 1 and the “sensitivity class Ovarian OVCAR-5 CL6003” value ([2]; cell line Ovarian OVCAR-5, CL6003) was 1. For the same compound, the “sensitivity class Ovarian OVCAR-8 CL6005” value ([2]; cell line Ovarian OVCAR-8, CL6005) was 2, the “sensitivity class Ovarian SK-OV-3 CL6011” value ([2]; cell line Ovarian SK-OV-3, CL6011) was 2 and the “sensitivity class Prostate DU-145 CL11003” value ([2]; cell line Prostate DU-145, CL11003) was 2. The “sensitivity class Prostate PC-3(I) CL11001” value ([2]; cell line Prostate PC-3(I), CL11001) was 2, the “sensitivity class Renal 786-O CL9018” value ([2]; cell line Renal 786-O, CL9018) was 2 and the “sensitivity class Renal A498 CL9013” value ([2]; cell line Renal A498, CL9013) was 2. The “sensitivity class Renal ACHN CL9023” value ([2]; cell line Renal ACHN, CL9023) was 3, the “sensitivity class Renal CAKI-1 CL9015” value ([2]; cell line Renal CAKI-1, CL9015) was 3 and the “sensitivity class Renal RXF-393 CL9016” value ([2]; cell line Renal RXF-393, CL9016) was 2. The “sensitivity class Renal SN12C CL9008” value ([2]; cell line Renal SN12C, CL9008) was 3, the “sensitivity class Renal TK10 CL9024” value ([2]; cell line Renal TK10, CL9024) was 1 and the “sensitivity class Renal UO-31 CL9004” value ([2]; cell line Renal UO-31, CL9004) was 1.
